Reference: US20250353891A1 (MEDIMMUNE LIMITED, priority 2022, published 2025)
pEC50: −log10 of the molar value. Starred links: 1 amine or outer side, 2 acyl side, 3 side chain; linkers in the order of their positions; H or OH if unused. Non-standard residues stand in square brackets, D forms with d. Residues, ends and D or L forms follow the SMILES beside them. Groups on a side chain read outwards from the residue. *: point of attachment. C20 diacid = O=C(O)CCCCCCCCCCCCCCCCCCC(=O)*; C18 diacid = O=C(O)CCCCCCCCCCCCCCCCC(=O)*; γGlu = O=C(O)[C@H](CCC(=O)[*:2])N[*:1]; αMeF = C[C@](N)(Cc1ccccc1)C(=O)O; AEEA = NCCOCCOCC(=O)O; Aib = CC(C)(N)C(=O)O

Columns and labels:
[1] = molecular target: human GLP-1 receptor (hGLP-1R) (Homo sapiens, UniProt P43220); assay: cAMP production (HTRF) in CHO cells expressing hGLP-1R; assay type: cell-based; set-up: expressed in transfected cells; settings: for pEC50: Table 7, peptides modified at position 20, cAMP in CHO hGLP-1R cells, geometric mean, read-out: hGLP-1R EC50; for % Relative Potency Ratio: Table 7, % GLP-1R activity relative to GLP-1 / % GlucR activity relative to glucagon
Procedure, shortened: (§1)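 Potency values represent EC50 from 4-parameter logistic curves of HTRF % Delta F signal. Receptor-expressing CHO cells (hGCGR 2×10^5 cells/mL, hGLP-1R 1×10^5 cells/mL) were exposed for 30 min at room temperature before two-step cAMP detection.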

[2] = molecular target: human glucagon receptor (hGCGR) (Homo sapiens, UniProt P47871); assay: cAMP production (HTRF) in CHO cells expressing hGCGR; assay type: cell-based; set-up: expressed in transfected cells; settings: Table 7, peptides modified at position 20; cAMP in CHO hGCGR cells; geometric mean; read-out: hGluc-R EC50
Procedure, shortened: as §1

Chain of human GLP-1 receptor (hGLP-1R) (P43220 24-463): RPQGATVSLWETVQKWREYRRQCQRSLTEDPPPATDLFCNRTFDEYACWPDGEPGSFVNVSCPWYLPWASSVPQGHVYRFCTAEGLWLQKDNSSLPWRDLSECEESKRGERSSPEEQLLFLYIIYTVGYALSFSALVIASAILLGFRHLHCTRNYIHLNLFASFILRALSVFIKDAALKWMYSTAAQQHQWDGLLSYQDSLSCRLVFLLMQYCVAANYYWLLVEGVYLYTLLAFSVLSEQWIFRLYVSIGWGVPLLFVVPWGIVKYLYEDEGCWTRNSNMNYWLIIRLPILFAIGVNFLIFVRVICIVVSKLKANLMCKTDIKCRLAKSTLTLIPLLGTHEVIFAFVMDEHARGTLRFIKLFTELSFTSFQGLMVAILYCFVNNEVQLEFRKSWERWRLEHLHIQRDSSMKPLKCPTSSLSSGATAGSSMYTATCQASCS
Chain of human glucagon receptor (hGCGR) (P47871 26-477): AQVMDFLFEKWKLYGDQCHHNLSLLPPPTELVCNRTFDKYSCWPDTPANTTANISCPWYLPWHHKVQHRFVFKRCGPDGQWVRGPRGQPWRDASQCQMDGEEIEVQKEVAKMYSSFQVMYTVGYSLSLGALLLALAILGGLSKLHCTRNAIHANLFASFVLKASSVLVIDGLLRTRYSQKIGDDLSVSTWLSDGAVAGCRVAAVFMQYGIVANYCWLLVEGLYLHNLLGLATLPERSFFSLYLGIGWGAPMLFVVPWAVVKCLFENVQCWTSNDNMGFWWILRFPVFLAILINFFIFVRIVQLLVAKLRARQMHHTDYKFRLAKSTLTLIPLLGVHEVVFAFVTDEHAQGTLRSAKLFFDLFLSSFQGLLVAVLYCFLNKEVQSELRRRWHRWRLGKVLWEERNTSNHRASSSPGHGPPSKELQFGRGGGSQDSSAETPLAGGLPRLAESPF

With CC[C@H](C)[C@H](NC(=O)[C@H](Cc1c[nH]c2ccccc12)NC(=O)[C@H](CCC(N)=O)NC(=O)[C@@H](NC(=O)[C@H](Cc1ccccc1)NC(=O)[C@H](CC(=O)O)NC(=O)[C@H](CCCCNC(=O)COCCOCCNC(=O)COCCOCCNC(=O)CC[C@H](NC(=O)CCCCCCCCCCCCCCCCC(=O)O)C(=O)O)NC(=O)[C@H](C)NC(=O)[C@H](C)NC(=O)[C@H](CCCNC(=N)N)NC(=O)[C@H](CO)NC(=O)[C@H](CC(=O)O)NC(=O)[C@H](CC(C)C)NC(=O)[C@H](Cc1ccc(O)cc1)NC(=O)[C@H](CCCCN)NC(=O)[C@H](CO)NC(=O)[C@@H](NC(=O)[C@H](CC(=O)O)NC(=O)[C@H](CO)NC(=O)[C@@H](NC(=O)[C@](C)(Cc1ccccc1)NC(=O)[C@H](CO)NC(=O)CNC(=O)[C@H](Cc1c[nH]cn1)NC(=O)C(C)(C)NC(=O)[C@@H](N)Cc1c[nH]cn1)[C@@H](C)O)C(C)C)C(C)C)C(=O)N[C@@H](C)C(=O)N[C@@H](CC(N)=O)C(=O)N[C@H](C(N)=O)[C@@H](C)O [Peptide 292] (H-H[Aib]HGS[αMeF]TSDVSKYLDSRAAK([AEEA-AEEA-γGlu-C18 diacid])DFVQWIANT-NH2) the pEC50 [1] was 10.54, the “% Relative Potency Ratio” value [1] was 1.4 and the pEC50 [2] was 10.69.
CC[C@H](C)[C@H](NC(=O)[C@H](Cc1c[nH]c2ccccc12)NC(=O)[C@H](CCC(N)=O)NC(=O)[C@@H](NC(=O)[C@H](Cc1ccccc1)NC(=O)[C@H](CC(=O)O)NC(=O)[C@H](CCCCNC(=O)COCCOCCNC(=O)COCCOCCNC(=O)CC[C@H](NC(=O)CCCCCCCCCCCCCCCCC(=O)O)C(=O)O)NC(=O)[C@H](C)NC(=O)[C@H](C)NC(=O)[C@H](CCCNC(=N)N)NC(=O)[C@H](CO)NC(=O)[C@H](CC(=O)O)NC(=O)[C@H](CC(C)C)NC(=O)[C@](C)(Cc1ccccc1)NC(=O)[C@H](CCCCN)NC(=O)[C@H](CO)NC(=O)[C@@H](NC(=O)[C@H](CC(=O)O)NC(=O)[C@H](CO)NC(=O)[C@@H](NC(=O)[C@H](Cc1ccccc1)NC(=O)[C@H](CO)NC(=O)CNC(=O)[C@H](Cc1c[nH]cn1)NC(=O)C(C)(C)NC(=O)[C@@H](N)Cc1c[nH]cn1)[C@@H](C)O)C(C)C)C(C)C)C(=O)N[C@@H](C)C(=O)N[C@@H](CC(N)=O)C(=O)N[C@H](C(N)=O)[C@@H](C)O [Peptide 293] (H-H[Aib]HGSFTSDVSK[αMeF]LDSRAAK([AEEA-AEEA-γGlu-C18 diacid])DFVQWIANT-NH2) was tested, and the pEC50 [1] was 10.04, the “% Relative Potency Ratio” value [1] was 0.7 and the pEC50 [2] was 10.48.
For CC[C@H](C)[C@H](NC(=O)[C@H](Cc1c[nH]c2ccccc12)NC(=O)[C@H](CCC(N)=O)NC(=O)[C@@H](NC(=O)[C@](C)(Cc1ccccc1)NC(=O)[C@H](CC(=O)O)NC(=O)[C@H](CCCCNC(=O)COCCOCCNC(=O)COCCOCCNC(=O)CC[C@H](NC(=O)CCCCCCCCCCCCCCCCC(=O)O)C(=O)O)NC(=O)[C@H](C)NC(=O)[C@H](C)NC(=O)[C@H](CCCNC(=N)N)NC(=O)[C@H](CO)NC(=O)[C@H](CC(=O)O)NC(=O)[C@H](CC(C)C)NC(=O)[C@H](Cc1ccc(O)cc1)NC(=O)[C@H](CCCCN)NC(=O)[C@H](CO)NC(=O)[C@@H](NC(=O)[C@H](CC(=O)O)NC(=O)[C@H](CO)NC(=O)[C@@H](NC(=O)[C@H](Cc1ccccc1)NC(=O)[C@H](CO)NC(=O)CNC(=O)[C@H](Cc1c[nH]cn1)NC(=O)C(C)(C)NC(=O)[C@@H](N)Cc1c[nH]cn1)[C@@H](C)O)C(C)C)C(C)C)C(=O)N[C@@H](C)C(=O)N[C@@H](CC(N)=O)C(=O)N[C@H](C(N)=O)[C@@H](C)O [Peptide 294] (H-H[Aib]HGSFTSDVSKYLDSRAAK([AEEA-AEEA-γGlu-C18 diacid])D[αMeF]VQWIANT-NH2), the pEC50 [1] was 9.29, the “% Relative Potency Ratio” value [1] was 0.4 and the pEC50 [2] was 9.99.
For CC[C@H](C)[C@H](NC(=O)C(C)(C)NC(=O)[C@H](CCC(N)=O)NC(=O)[C@@H](NC(=O)[C@](C)(Cc1ccccc1)NC(=O)[C@H](CC(=O)O)NC(=O)[C@H](CCCCNC(=O)COCCOCCNC(=O)COCCOCCNC(=O)CC[C@H](NC(=O)CC[C@H](NC(=O)CCCCCCCCCCCCCCCCCCC(=O)O)C(=O)O)C(=O)O)NC(=O)[C@H](C)NC(=O)[C@H](C)NC(=O)[C@H](CCCNC(=N)N)NC(=O)[C@H](CO)NC(=O)[C@H](CC(=O)O)NC(=O)[C@H](CC(C)C)NC(=O)C(C)(C)NC(=O)[C@H](CCCCN)NC(=O)[C@H](CO)NC(=O)[C@@H](NC(=O)[C@H](CC(=O)O)NC(=O)[C@H](CO)NC(=O)[C@@H](NC(=O)[C@](C)(Cc1ccccc1)NC(=O)[C@H](CO)NC(=O)CNC(=O)[C@H](Cc1c[nH]cn1)NC(=O)C(C)(C)NC(=O)[C@@H](N)Cc1c[nH]cn1)[C@@H](C)O)C(C)C)C(C)C)C(=O)N[C@@H](C)C(=O)N[C@@H](CC(N)=O)C(=O)N[C@H](C(N)=O)[C@@H](C)O [Peptide 295] (H-H[Aib]HGS[αMeF]TSDVSK[Aib]LDSRAAK([AEEA-AEEA-γGlu-γGlu-C20 diacid])D[αMeF]VQ[Aib]IANT-NH2), the pEC50 [1] was 9.51, the “% Relative Potency Ratio” value [1] was 108.2 and the pEC50 [2] was 7.77.
For CC[C@H](C)[C@H](NC(=O)C(C)(C)NC(=O)[C@H](CCC(N)=O)NC(=O)[C@@H](NC(=O)[C@](C)(Cc1ccccc1)NC(=O)[C@H](CC(=O)O)NC(=O)[C@H](CCCCNC(=O)COCCOCCNC(=O)COCCOCCNC(=O)CC[C@H](NC(=O)CCCCCCCCCCCCCCCCC(=O)O)C(=O)O)NC(=O)[C@H](C)NC(=O)[C@H](C)NC(=O)[C@H](CCCNC(=N)N)NC(=O)[C@H](CO)NC(=O)[C@H](CC(=O)O)NC(=O)[C@H](CC(C)C)NC(=O)C(C)(C)NC(=O)[C@H](CCCCN)NC(=O)[C@H](CO)NC(=O)[C@@H](NC(=O)[C@H](CC(=O)O)NC(=O)[C@H](CO)NC(=O)[C@@H](NC(=O)[C@](C)(Cc1ccccc1)NC(=O)[C@H](CO)NC(=O)CNC(=O)[C@H](Cc1c[nH]cn1)NC(=O)C(C)(C)NC(=O)[C@@H](N)Cc1c[nH]cn1)[C@@H](C)O)C(C)C)C(C)C)C(=O)N[C@@H](C)C(=O)N[C@@H](CC(N)=O)C(=O)N[C@H](C(N)=O)[C@@H](C)O [Peptide 296] (H-H[Aib]HGS[αMeF]TSDVSK[Aib]LDSRAAK([AEEA-AEEA-γGlu-C18 diacid])D[αMeF]VQ[Aib]IANT-NH2), the pEC50 [1] was 10.19, the “% Relative Potency Ratio” value [1] was 100.3 and the pEC50 [2] was 8.49.
CC[C@H](C)[C@H](NC(=O)C(C)(C)NC(=O)[C@H](CCC(N)=O)NC(=O)[C@@H](NC(=O)[C@](C)(Cc1ccccc1)NC(=O)[C@H](CC(=O)O)NC(=O)[C@H](CCCCNC(=O)COCCOCCNC(=O)COCCOCCNC(=O)CC[C@H](NC(=O)CCCCCCCCCCCCCCCCC(=O)O)C(=O)O)NC(=O)[C@H](C)NC(=O)[C@H](C)NC(=O)[C@H](CCCNC(=N)N)NC(=O)[C@H](CO)NC(=O)[C@H](CC(=O)O)NC(=O)[C@H](CC(C)C)NC(=O)[C@](C)(Cc1ccccc1)NC(=O)[C@H](CCCNC(=N)N)NC(=O)[C@H](CO)NC(=O)[C@@H](NC(=O)[C@H](CC(=O)O)NC(=O)[C@H](CO)NC(=O)[C@@H](NC(=O)[C@](C)(Cc1ccccc1)NC(=O)[C@H](CO)NC(=O)CNC(=O)[C@H](Cc1c[nH]cn1)NC(=O)C(C)(C)NC(=O)[C@@H](N)Cc1c[nH]cn1)[C@@H](C)O)C(C)C)C(C)C)C(=O)N[C@@H](C)C(=O)N[C@@H](CC(N)=O)C(=O)N[C@H](C(N)=O)[C@@H](C)O [Peptide 297] (H-H[Aib]HGS[αMeF]TSDVSR[αMeF]LDSRAAK([AEEA-AEEA-γGlu-C18 diacid])D[αMeF]VQ[Aib]IANT-NH2) was tested, and the pEC50 [1] was 10.52, the “% Relative Potency Ratio” value [1] was 6.8 and the pEC50 [2] was 9.98.
CC[C@H](C)[C@H](NC(=O)C(C)(C)NC(=O)[C@H](CCC(N)=O)NC(=O)[C@@H](NC(=O)[C@](C)(Cc1ccccc1)NC(=O)[C@H](CC(=O)O)NC(=O)[C@H](CCCCNC(=O)COCCOCCNC(=O)COCCOCCNC(=O)CC[C@H](NC(=O)CC[C@H](NC(=O)CCCCCCCCCCCCCCCCCCC(=O)O)C(=O)O)C(=O)O)NC(=O)[C@H](C)NC(=O)[C@H](C)NC(=O)[C@H](CCCNC(=N)N)NC(=O)[C@H](CO)NC(=O)[C@H](CC(=O)O)NC(=O)[C@H](CC(C)C)NC(=O)[C@](C)(Cc1ccccc1)NC(=O)[C@H](CCCNC(=N)N)NC(=O)[C@H](CO)NC(=O)[C@@H](NC(=O)[C@H](CC(=O)O)NC(=O)[C@H](CO)NC(=O)[C@@H](NC(=O)[C@](C)(Cc1ccccc1)NC(=O)[C@H](CO)NC(=O)CNC(=O)[C@H](Cc1c[nH]cn1)NC(=O)C(C)(C)NC(=O)[C@@H](N)Cc1c[nH]cn1)[C@@H](C)O)C(C)C)C(C)C)C(=O)N[C@@H](C)C(=O)N[C@@H](CC(N)=O)C(=O)N[C@H](C(N)=O)[C@@H](C)O [Peptide 298] (H-H[Aib]HGS[αMeF]TSDVSR[αMeF]LDSRAAK([AEEA-AEEA-γGlu-γGlu-C20 diacid])D[αMeF]VQ[Aib]IANT-NH2) was tested, and the pEC50 [1] was 10.12, the “% Relative Potency Ratio” value [1] was 15.0 and the pEC50 [2] was 9.24.
With CC[C@H](C)[C@H](NC(=O)C(C)(C)NC(=O)[C@H](CCC(N)=O)NC(=O)[C@@H](NC(=O)[C@](C)(Cc1ccccc1)NC(=O)[C@H](CC(=O)O)NC(=O)[C@H](CCCCNC(=O)COCCOCCNC(=O)COCCOCCNC(=O)CC[C@H](NC(=O)CC[C@H](NC(=O)CCCCCCCCCCCCCCCCCCC(=O)O)C(=O)O)C(=O)O)NC(=O)[C@H](C)NC(=O)[C@H](C)NC(=O)[C@H](CCCNC(=N)N)NC(=O)[C@H](CO)NC(=O)[C@H](CC(=O)O)NC(=O)[C@H](CC(C)C)NC(=O)[C@](C)(Cc1ccccc1)NC(=O)[C@H](CCCCN)NC(=O)[C@H](CO)NC(=O)[C@@H](NC(=O)[C@H](CC(=O)O)NC(=O)[C@H](CO)NC(=O)[C@@H](NC(=O)[C@](C)(Cc1ccccc1)NC(=O)[C@H](CO)NC(=O)CNC(=O)[C@H](Cc1c[nH]cn1)NC(=O)C(C)(C)NC(=O)[C@@H](N)Cc1c[nH]cn1)[C@@H](C)O)C(C)C)C(C)C)C(=O)N[C@@H](C)C(=O)N[C@@H](CCC(=O)O)C(=O)N[C@H](C(N)=O)[C@@H](C)O [Peptide 299] (H-H[Aib]HGS[αMeF]TSDVSK[αMeF]LDSRAAK([AEEA-AEEA-γGlu-γGlu-C20 diacid])D[αMeF]VQ[Aib]IAET-NH2) the pEC50 [1] was 10.12 and the pEC50 [2] was 9.71.
